# In US20250188030A1, “Biphenyl and Phenylpyridine Compounds” (Pfizer Inc., priority 2023, published 2025):
# Like-named read-outs stand apart in the source and are kept apart here.
# Key:
# H3K9AC (HT1080 cells) = assay: H3K9AC Sandwich ELISA Assay in HT1080 cells (KAT2A primary cell-based screening assay); design: species or system Human
# Summary of the method: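 Acetylated H3K9 quantified by luminescent sandwich ELISA (total H3 capture, H3K9ac detection) on HCl lysates of HT1080 cells. Cells had 24 h compound exposure at 37 °C, top concentration 10 µM, 10-point 3-fold series, 0.1% DMSO; IC50 from four-parameter fitting.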
# MM.1S cells = assay: MM1.S 10 Day Proliferation Assay (CellTiter-Glo); format: cell-based, Human
# Summary of the method: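 MM.1S cells, 500/well in ultra-low-attachment plates, were pre-incubated 16 h, then exposed to a 10-point 1:3 dilution series (top 10 μM final, 0.1% DMSO) for 10 days at 37 °C, with compound-containing medium refreshed at day 5. Viability was read by CellTiter-Glo luminescence; IC50 came from four-parameter fit.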
# KAT2A = KAT2A (Homo sapiens (Human), UniProt Q92830); assay: KAT2A acetyltransferase biochemical assay (RapidFire mass spectrometry, AcCoA to CoA)
# Protocol: • A) Compound preparation • 1) Prepare 10 mM stock solutions in 100% DMSO from solid material. • 2) Serial dilute 10 mM, 1 mM, 0.1 or 0.01 mM compound stocks 3-fold in 100% DMSO for 11-point dose response. • B) Reagent preparation • 1) Prepare 1×assay buffer containing 40 mM bis tris propane pH 8.0, 10 mM NaCl, 0.5 mM EDTA, and 0.002% Tween-20. • 2) Dilute Histone peptide (CPC Scientific) and KAT enzyme together in assay buffer to 1.25×. • 3) Dilute AcCoA (Sigma) in assay buffer to 5×. • C) Enzyme reaction • 1) Final reaction conditions for each KAT assay in a 100ul assay reaction volume: • i) KAT2A 0.5 nM, 1 uM AcCoA, 5 uM H3 1-21 peptide, 90-minute reaction • ii) KAT2B 0.5 nM, 1 uM AcCoA, 5 uM H3 1-21 peptide, 90-minute reaction • 2) Add 2 ul of diluted compound series to the assay plate (96-well round-bottom polypropylene plates) or 2 ul of DMSO for control wells. • 3) Add 11 μL of 10% formic acid to 100% effect (HPE) control wells. • 4) Add 80 ul of 1.25× Histone peptide/KAT mix to the assay plate via Multidrop Combi (ThermoFisher). Incubate 15 min at room temperature. • 5) Add 20 ul of 5× AcCoA to the assay plate via Multidrop Combi. • 6) Stop the reaction after the indicated time with the addition of 11 ul of 10% formic acid via Multidrop Combi. • 7) Each reaction was analyzed using Rapid Fire mass spectrometry platform.
# KAT enzymes were expressed using a baculovirus expression system and purified at Pfizer, La Jolla. […] Acetyl coenzyme A was purchased from Sigma-Aldrich (St. Louis, MO). All other biochemical reagents were purchased from Sigma-Aldrich or ThermoFisher Scientific (Waltham, MA).
# KAT assays were performed at room temperature in assay buffer containing 1 μM AcCoA, 5 μM histone peptide, 40 mM bis tris propane pH 8.0, 10 mM NaCl, 0.5 mM EDTA 0.002% Tween-20. 80 ul of 1.25× Histone peptide/enzyme mix was added to a 96-well round-bottom polypropylene assay plate containing 2 ul of serially diluted test compound in 100% dimethyl sulfoxide (DMSO). To start the reaction, 20 ul of 5× AcCoA solution was added to the assay plate. KAT assays were terminated after 90 minutes with the addition of 11 ul of 10% formic acid. All assays used histone H3 (1-21) peptide. The final enzyme concentration for each KAT was as follows: KAT2A, 0.5 nM; KAT2B, 0.5 nM. […] Each reaction was analyzed using Rapid Fire mass spectrometry platform. This methodology leverages an Agilent 6495 triple quadrupole (QQQ) mass spectrometer coupled to a RapidFire model 365 to specifically capture and measure KAT2 acetyltransferase activity, converting AcCoA (substrate) to CoA (product).
# Area under the curve (AUC) for both substrate and product peaks was determined for KAT2 at M.W. 809.6 [Substrate+H]+ and 767.3 [Product+H]+ with a +/−1 Da tolerance, respectively. Acetyltransferase activity (% of DMSO control) was calculated by: ((AUCProduct/AUCsubstrate)-AUCHPE)/(AUCZPE-AUCHPE))*100. Ki values were determined by fitting the % acetyltransferase activity at each inhibitor concentration to the Morrison equation for tightbinding competitive inhibitors using Pfizer proprietary curve fitting software.
# To determine the inhibition of KAT enzymatic activity by test compounds, assay reactions were conducted in a volume of 100 μL in 96-well round-bottom polypropylene assay plate. The reactions were performed in assay buffer (40 mM bis tris propane, pH 8, 10 mM NaCl, 0.5 mM EDTA, 0.002% Tween-20).
# KAT2B = KAT2B (Homo sapiens (Human), UniProt Q92831); assay: KAT2B acetyltransferase biochemical assay (RapidFire mass spectrometry, AcCoA to CoA)
# [1] = Homo sapiens, HT-1080, H3K9AC sandwich ELISA
# [2] = read-out: KAT2A Ki at 1 μM AcCoA, 5 μM H3 1-21 peptide, 0.5 nM KAT2A, 90-minute reaction
# [3] = read-out: KAT2B Ki at 1 μM AcCoA, 1 μM AcCoA, 5 μM H3 1-21 peptide, 0.5 nM KAT2B, 90-minute reaction
# [4] = KAT2A Ki at 1 μM AcCoA, 5 μM H3 1-21 peptide, 0.5 nM KAT2A, 90-minute reaction
# Sequence of KAT2B (Q92831 2-832): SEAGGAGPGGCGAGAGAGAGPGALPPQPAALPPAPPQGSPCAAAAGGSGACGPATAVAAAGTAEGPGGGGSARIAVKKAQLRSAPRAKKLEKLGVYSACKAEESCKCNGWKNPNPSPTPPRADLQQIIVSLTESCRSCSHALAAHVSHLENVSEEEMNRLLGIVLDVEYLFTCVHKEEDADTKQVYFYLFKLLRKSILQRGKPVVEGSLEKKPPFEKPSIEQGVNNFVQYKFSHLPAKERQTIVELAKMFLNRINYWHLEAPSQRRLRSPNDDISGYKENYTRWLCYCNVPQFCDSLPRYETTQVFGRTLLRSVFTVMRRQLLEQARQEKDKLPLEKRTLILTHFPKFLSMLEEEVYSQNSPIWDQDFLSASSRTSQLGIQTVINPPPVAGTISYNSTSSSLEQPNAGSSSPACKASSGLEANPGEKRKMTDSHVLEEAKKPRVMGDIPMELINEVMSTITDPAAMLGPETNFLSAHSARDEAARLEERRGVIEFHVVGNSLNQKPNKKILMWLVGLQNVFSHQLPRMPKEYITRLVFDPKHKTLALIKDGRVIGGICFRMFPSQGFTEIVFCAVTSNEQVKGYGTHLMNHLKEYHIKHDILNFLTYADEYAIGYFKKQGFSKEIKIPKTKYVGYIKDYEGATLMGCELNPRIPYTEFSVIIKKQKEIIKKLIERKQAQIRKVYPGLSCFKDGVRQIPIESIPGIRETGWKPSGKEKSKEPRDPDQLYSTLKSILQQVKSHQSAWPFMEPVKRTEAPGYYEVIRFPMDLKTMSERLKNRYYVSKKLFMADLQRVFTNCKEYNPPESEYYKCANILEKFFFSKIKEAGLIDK
# Sequence of KAT2A (Q92830 whole entry): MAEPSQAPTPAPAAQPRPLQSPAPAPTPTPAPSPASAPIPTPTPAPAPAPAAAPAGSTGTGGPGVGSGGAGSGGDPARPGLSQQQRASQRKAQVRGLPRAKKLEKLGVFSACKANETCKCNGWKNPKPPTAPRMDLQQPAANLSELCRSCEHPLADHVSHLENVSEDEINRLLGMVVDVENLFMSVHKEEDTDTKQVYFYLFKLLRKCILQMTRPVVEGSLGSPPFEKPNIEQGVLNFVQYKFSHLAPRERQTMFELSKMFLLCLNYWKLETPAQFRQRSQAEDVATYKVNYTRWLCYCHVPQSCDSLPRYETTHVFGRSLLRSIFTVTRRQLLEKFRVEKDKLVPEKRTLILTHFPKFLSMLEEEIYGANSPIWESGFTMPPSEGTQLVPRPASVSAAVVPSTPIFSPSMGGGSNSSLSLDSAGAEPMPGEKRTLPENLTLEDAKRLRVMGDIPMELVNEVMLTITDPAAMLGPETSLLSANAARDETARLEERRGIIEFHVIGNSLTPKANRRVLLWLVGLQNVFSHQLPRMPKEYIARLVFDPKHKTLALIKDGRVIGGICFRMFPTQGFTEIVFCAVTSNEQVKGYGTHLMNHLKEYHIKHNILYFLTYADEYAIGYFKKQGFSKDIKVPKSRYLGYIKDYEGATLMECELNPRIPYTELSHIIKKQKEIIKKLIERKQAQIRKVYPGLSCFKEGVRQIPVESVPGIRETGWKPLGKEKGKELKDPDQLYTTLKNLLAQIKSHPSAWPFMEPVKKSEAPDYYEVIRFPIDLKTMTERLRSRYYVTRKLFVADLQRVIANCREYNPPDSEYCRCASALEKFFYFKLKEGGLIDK
Structure (SMILES),IC50 (H3K9AC (HT1080 cells); [1]),"IC50 (MM.1S cells; Homo sapiens, MM1.S, 240 h)",Ki (KAT2A; [2]),Ki (KAT2B; [3]),IC50 (H3K9AC (HT1080 cells); H3K9AC sandwich ELISA),Ki (KAT2A; [4]),Ki (KAT2B),IC50 (MM.1S cells)
"CC(C)(C(=O)O)c1ccc(O[C@@H]2CC[C@@H](NC(=O)[C@]3(F)CNC4(CCCC4)C3)C2)c(-c2cccc(F)c2C2CCC2)c1 (single isomer, unassigned) [Example A6]",7.67 nM,92.4 nM,0.54 nM,1.21 nM,,,,
"CC1(C)CNC[C@](F)(C(=O)N[C@@H]2CC[C@@H](Oc3ccc(C(C)(C)C(=O)O)cc3-c3cccc(F)c3C3CCC3)C2)C1 (single isomer, unassigned) [Example A16]",,144 nM,1.39 nM,2.43 nM,13.4 nM,,,
"CC1(C)CNC[C@](F)(C(=O)N[C@@H]2CC[C@@H](Oc3ccc(CC(=O)O)cc3-c3cccc(F)c3C3CCC3)C2)C1 (single isomer, unassigned) [Example A23]",6.36 nM,60 nM,0.57 nM,2.85 nM,,,,
"CCS(=O)(=O)NC(=O)C(C)(C)c1ccc(O[C@@H]2CC[C@@H](NC(=O)C3(F)CNC4(CCC4)C3)C2)c(-c2cccc(F)c2C2CCC2)c1 (single isomer, unassigned) [Example B2]",,7.51 nM,,,3.14 nM,0.13 nM,0.13 nM,
"CC(C)S(=O)(=O)NC(=O)C(C)(C)c1ccc(O[C@@H]2CC[C@@H](NC(=O)[C@]3(F)CNC4(CCC4)C3)C2)c(-c2cccc(F)c2C2CCC2)c1 (single isomer, unassigned) [Example B4]",3.12 nM,8.38 nM,0.14 nM,0.15 nM,,,,
"CCS(=O)(=O)NC(=O)C(C)(C)c1ccc(O[C@@H]2CC[C@@H](NC(=O)[C@@]3(F)CNC(C)(C)C3)C2)c(-c2cccc(F)c2C2CCC2)c1 (single isomer, unassigned) [Example B13]",,,0.14 nM,0.35 nM,1.96 nM,,,38.8 nM
"CCS(=O)(=O)NC(=O)C(C)(C)c1ccc(O[C@@H]2CC[C@@H](NC(=O)[C@@]3(F)CNC4(CCCC4)C3)C2)c(-c2cccc(F)c2C2CCC2)c1 (single isomer, unassigned) [Example B20]",0.93 nM,1.76 nM,0.05 nM,0.06 nM,,,,
"CC1(C)CNCC(F)(C(=O)N[C@@H]2CC[C@@H](Oc3ccc(C(C)(C)C(=O)NS(=O)(=O)C4CC4)cc3-c3cccc(F)c3C3CCC3)C2)C1 (single isomer, unassigned) [Example B28]",2.7 nM,5 nM,0.14 nM,0.19 nM,,,,
"CC(C)(C(=O)NS(C)(=O)=O)c1ccc(O[C@@H]2CC[C@@H](NC(=O)[C@@]3(F)CNC4(CCCC4)C3)C2)c(-c2cccc(F)c2C2CCC2)c1 (single isomer, unassigned) [Example C4]",,,0.26 nM,0.14 nM,1.25 nM,,,5.49 nM
"CC1(C)C[C@@](F)(C(=O)N[C@@H]2CC[C@@H](Oc3ccc(C(C)(C)C(=O)NS(C)(=O)=O)cc3-c3cccc(F)c3C3CCC3)C2)CN1 (single isomer, unassigned) [Example C5]",10.2 nM,12.6 nM,0.17 nM,0.18 nM,,,,
"CC1(C)C[C@](F)(C(=O)N[C@@H]2CC[C@@H](Oc3ccc(C(C)(C)C(=O)NS(C)(=O)=O)cc3-c3cccc(F)c3C3CCC3)C2)CN1 (single isomer, unassigned) [Example C6]",89.7 nM,,2.75 nM,14.8 nM,,,,
"CC1(C)C[C@@](F)(C(=O)N[C@@H]2CC[C@@H](Oc3ccc(C(C)(C)C(=O)NS(=O)(=O)N4CCC4)cc3-c3cccc(F)c3C3CCC3)C2)CN1 (single isomer, unassigned) [Example C7]",5.79 nM,17.5 nM,0.07 nM,0.04 nM,,,,
"CN(C)S(=O)(=O)NC(=O)C(C)(C)c1ccc(O[C@@H]2CC[C@@H](NC(=O)[C@@]3(F)CNC(C)(C)C3)C2)c(-c2cccc(F)c2C2CCC2)c1 (single isomer, unassigned) [Example C9]",6.96 nM,13.7 nM,0.06 nM,0.17 nM,,,,
"CCc1c(F)cccc1-c1cc(C(C)(C)C(=O)NS(C)(=O)=O)ccc1O[C@@H]1CC[C@@H](NC(=O)[C@]2(F)CNC3(CCC3)C2)C1 (single isomer, unassigned) [Example C12]",11 nM,89.6 nM,0.5 nM,0.93 nM,,,,
"CC(C)(C(=O)NS(C)(=O)=O)c1ccc(O[C@@H]2CC[C@@H](NC(=O)[C@]3(F)CNC4(CCC4)C3)C2)c(-c2cccc(F)c2C2CC2)c1 (single isomer, unassigned) [Example C14]",17.7 nM,63.7 nM,1.41 nM,5.62 nM,,,,
"CC(C)(C(=O)NS(C)(=O)=O)c1ccc(O[C@@H]2CC[C@@H](NC(=O)[C@@]3(F)CNC4(CCCC4)C3)C2)c(-c2cccc(F)c2C2CCC2)c1 (single isomer, unassigned) [Example C16]",,,0.08 nM,0.06 nM,23.2 nM,,,81.8 nM
"CC(C)c1c(F)cccc1-c1cc(C(C)(C)C(=O)NS(C)(=O)=O)ccc1O[C@@H]1CC[C@@H](NC(=O)[C@@]2(F)CNC3(CCC3)C2)C1 (single isomer, unassigned) [Example C19]",,,0.12 nM,0.8 nM,5.06 nM,,,66.7 nM
"CC(C)(C(=O)NS(=O)(=O)C1(C)CC1)c1ccc(O[C@@H]2CC[C@@H](NC(=O)[C@@]3(F)CNC4(CCC4)C3)C2)c(-c2cccc(F)c2C2CC2)c1 (single isomer, unassigned) [Example C21]",,13.7 nM,0.09 nM,0.11 nM,1.11 nM,,,
"CCc1c(F)cccc1-c1cc(C(C)(C)C(=O)NS(=O)(=O)CC)ccc1O[C@@H]1CC[C@@H](NC(=O)[C@@]2(F)CNC3(CCCC3)C2)C1 (single isomer, unassigned) [Example C24]",2.77 nM,9.83 nM,0.34 nM,0.22 nM,,,,
"CCc1c(F)cccc1-c1cc(C(C)(C)C(=O)NS(=O)(=O)CC)ccc1O[C@@H]1CC[C@@H](NC(=O)[C@@]2(F)CNC3(CCCC3)C2)C1 (single isomer, unassigned) [Example C25]",,,0.14 nM,0.55 nM,1.71 nM,,,9.29 nM

# Further lines, results first:
IC50 (H3K9AC (HT1080 cells); [1]),"IC50 (MM.1S cells; Homo sapiens, MM1.S, 240 h)",Ki (KAT2A; [2]),Ki (KAT2B; [3]),IC50 (H3K9AC (HT1080 cells); H3K9AC sandwich ELISA),Ki (KAT2A; [4]),Ki (KAT2B),IC50 (MM.1S cells),Structure (SMILES)
57.2 nM,219 nM,18.3 nM,32.9 nM,,,,,"CN1CC(C)(C)C[C@H]1C(=O)N[C@@H]1CC[C@@H](Oc2cccc(C(=O)O)c2-c2cccc(F)c2C2CCC2)C1 (atropisomer, axis not shown) [Example H3, (1ψ)-2′-cyclobutyl-3′-fluoro-6-({(1R,3R)-3-[(1,4,4-trimethyl-L-prolyl)amino]cyclopentyl}oxy)[1,1′-biphenyl]-2-carboxylic acid]"
,679 nM,,63.6 nM,84.2 nM,,,,"CN1CC(C)(C)C[C@H]1C(=O)N[C@@H]1CC[C@@H](Oc2cccc(CC(=O)O)c2-c2ccccc2C2CCC2)C1 (atropisomer, axis not shown) [Example H6, [(1ψ)-2′-cyclobutyl-6-({(1R,3R)-3-[(1,4,4-trimethyl-L-prolyl)amino]cyclopentyl}oxy)[1,1′-biphenyl]-2-yl]acetic acid]"
90 nM,,33 nM,115 nM,,,,,"CC1(C)C[C@H](C(=O)N[C@@H]2CC[C@@H](Oc3cccc(C(=O)O)c3-c3cccc(F)c3C3CCC3)C2)CN1 (atropisomer, axis not shown) [Example H9, (1ψ)-2′-cyclobutyl-6-{[(1R,3R)-3-{[(3ξ)-5,5-dimethylpyrrolidine-3-carbonyl]amino}cyclopentyl]oxy}-3′-fluoro[1,1′-biphenyl]-2-carboxylic acid]"
6.43 nM,123 nM,20.6 nM,20.3 nM,,,,,"CN1CC(C)(C)C[C@H]1C(=O)N[C@@H]1CC[C@@H](Oc2cccc(C(=O)NS(=O)(=O)N3CC(F)C3)c2-c2cccc(F)c2C2CCC2)C1 (atropisomer, axis not shown) [Example I12, N-[(1R,3R)-3-({(1ψ)-2′-cyclobutyl-3′-fluoro-6-[(3-fluoroazetidine-1-sulfonyl)carbamoyl][1,1′-biphenyl]-2-yl}oxy)cyclopentyl]-1,4,4-trimethyl-L-prolinamide]"
30.6 nM,,,,,70.3 nM,46.8 nM,,"CN1CC2(CCOCC2)C[C@H]1C(=O)N[C@@H]1CC[C@@H](Oc2ccc(C(=O)O)cc2-c2ccccc2C2CCC2)C1 (single isomer, unassigned) [Example D2]"
10.2 nM,,0.14 nM,0.62 nM,,,,,"CCn1cc(-c2ccc(O[C@@H]3CC[C@@H](NC(=O)[C@@]4(F)CNC5(CCC5)C4)C3)c(-c3cccc(F)c3C3CCC3)c2)c(C(=O)O)n1 (single isomer, unassigned) [Example J13]"
30.4 nM,,12.8 nM,58.8 nM,,,,,"CC(C)c1ccccc1-c1cc(C(=O)O)ccc1O[C@@H]1CC[C@@H](NC(=O)[C@@H]2CC(C)(C)CN2C)C1 [Example D5, 2′-(propan-2-yl)-6-({(1R,3R)-3-[(1,4,4-trimethyl-L-prolyl)amino]cyclopentyl}oxy)[1,1′-biphenyl]-3-carboxylic acid]"
